# From ChEMBL document CHEMBL5727262, “Tricyclic compound and JAK inhibitor” (2019)
# How the values were obtained:
# [1] = biological target: T1, Tyrosine-protein kinase JAK3 (Homo sapiens, UniProt P52333); assay: (§1) Enzyme Assay: The JAK inhibitory activities of compounds of the present invention were measured.The enzymes (JAK1, JAK2, JAK3 and Tyk2) were purchased from Carna Biosciences, Inc.As the substrate for the enzymes (hereinafter referred to as the substrate), LANCE Ultra ULight-JAK-1 (Tyr1023) Peptide (manufactured by PerkinElmer Co., Ltd.) was used.As the antibody for detecting phosphorylation of the substrate, LANCE Ultra Europium-anti-phospho tyrosine antibody (PT66) (manufactured by PerkinElmer Co., Ltd.) was used.The other reagents are purchased from the following suppliers.Adenosine triphosphate (ATP): Sigma-Aldrich4-(2-Hydroxyethyl)-1-piperazineethanesulfonic acid (HEPES): DOJINDO LABORATORIESGlycol ether diamine tetraacetic acid (EGTA): DOJINDO LABORATORIESMagnesium chloride (MgCl2): Wako Pure Chemical Industries, Ltd.Dithiothreitol (DTT): Wako Pure Chemical Industries, Ltd.Tween 20: Sigma-AldrichEthylenediaminetetraacetic acid (EDTA): DOJINDO LABORATORIESThe compounds of the present invention, the enzymes (JAK1, JAK2, JAK3 and Tyk2), the substrate and ATP were used for the assays after diluted with the assay buffer.The composition of the assay buffer is given below.HEPES (pH7.5): 50 mMEGTA: 1 mMMgCl2: 10 mMDTT: 2 mMTween 20: 0.01% (wt/wt)Dilutions were made at such concentrations and dispensed on a well plate, which will be described later, in such volumes that the following final concentrations would be achieved on the well plate. The enzyme concentrations and the ATP concentrations in the respective enzyme (JAK1, JAK2, JAK3 and Tyk2) assays were as follows.JAK1 enzyme assay; the enzyme concentration was 0.5 μg/mL, and the ATP concentration was 70 μM.JAK2 enzyme assay; the enzyme concentration was 0.013 μg/mL, and the ATP concentration was 10 μM.JAK3 enzyme assay; the enzyme concentration was 0.020 μg/mL, and the ATP concentration was 3 μM.Tyk2 enzyme assay; the enzyme concentration was 0.25 μg/mL and the ATP concentration was 20 μM.The concentration of the substrate for the enzymes was 25 nM.The concentration of EDTA was 15 mM.The concentration of PT66 was 2 nM.
# T1 sequence (P52333 whole entry): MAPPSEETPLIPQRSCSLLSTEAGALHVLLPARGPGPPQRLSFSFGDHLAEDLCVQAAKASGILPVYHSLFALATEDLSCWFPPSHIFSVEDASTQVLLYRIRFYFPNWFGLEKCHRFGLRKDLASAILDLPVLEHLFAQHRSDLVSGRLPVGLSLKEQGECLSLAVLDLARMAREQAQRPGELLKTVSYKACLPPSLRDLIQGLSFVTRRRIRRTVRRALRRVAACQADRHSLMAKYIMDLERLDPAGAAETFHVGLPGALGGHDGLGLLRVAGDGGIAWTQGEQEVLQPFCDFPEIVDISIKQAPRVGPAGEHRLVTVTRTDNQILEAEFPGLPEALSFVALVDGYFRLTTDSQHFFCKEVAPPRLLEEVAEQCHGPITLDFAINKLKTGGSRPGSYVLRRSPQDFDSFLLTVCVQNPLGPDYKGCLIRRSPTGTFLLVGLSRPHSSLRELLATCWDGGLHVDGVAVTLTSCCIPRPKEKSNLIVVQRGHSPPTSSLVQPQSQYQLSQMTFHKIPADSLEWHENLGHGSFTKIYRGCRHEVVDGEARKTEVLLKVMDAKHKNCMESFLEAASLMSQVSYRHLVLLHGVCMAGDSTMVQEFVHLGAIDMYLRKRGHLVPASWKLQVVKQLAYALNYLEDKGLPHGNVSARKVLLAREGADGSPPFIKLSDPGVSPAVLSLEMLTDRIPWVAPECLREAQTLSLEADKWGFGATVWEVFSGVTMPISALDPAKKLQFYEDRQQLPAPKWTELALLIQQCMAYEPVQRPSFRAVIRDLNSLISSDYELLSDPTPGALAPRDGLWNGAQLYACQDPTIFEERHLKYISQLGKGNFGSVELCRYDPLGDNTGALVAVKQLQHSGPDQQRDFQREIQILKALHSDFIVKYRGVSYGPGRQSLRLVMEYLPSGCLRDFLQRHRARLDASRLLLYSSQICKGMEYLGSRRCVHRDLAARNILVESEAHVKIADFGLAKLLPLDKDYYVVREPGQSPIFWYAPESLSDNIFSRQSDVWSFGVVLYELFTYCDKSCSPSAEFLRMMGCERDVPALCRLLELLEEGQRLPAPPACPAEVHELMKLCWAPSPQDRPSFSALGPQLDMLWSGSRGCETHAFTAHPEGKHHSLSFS
# [2] = biological target: Non-receptor tyrosine-protein kinase TYK2 (Homo sapiens, UniProt P29597); assay: as §1
# [3] = biological target: Tyrosine-protein kinase JAK1 (Homo sapiens, UniProt P23458); assay: as §1
# [4] = biological target: Tyrosine-protein kinase JAK2 (Homo sapiens, UniProt O60674); assay: as §1, with “plate.” for “plate. The enzyme concentrations and the ATP concentrations in the respective enzyme (JAK1, JAK2, JAK3 and Tyk2) assays were as follows.JAK1 enzyme assay; the enzyme concentration was 0.5 μg/mL, and the ATP concentration was 70 μM.JAK2 enzyme assay; the enzyme concentration was 0.013 μg/mL, and the ATP concentration was 10 μM.JAK3 enzyme assay; the enzyme concentration was 0.020 μg/mL, and the ATP concentration was 3 μM.Tyk2 enzyme assay; the enzyme concentration was 0.25 μg/mL and the ATP concentration was 20 μM.The concentration of the substrate for the enzymes was 25 nM.The concentration of EDTA was 15 mM.The concentration of PT66 was 2 nM.”
# Tyrosine-protein kinase JAK2, sequence (O60674 whole entry): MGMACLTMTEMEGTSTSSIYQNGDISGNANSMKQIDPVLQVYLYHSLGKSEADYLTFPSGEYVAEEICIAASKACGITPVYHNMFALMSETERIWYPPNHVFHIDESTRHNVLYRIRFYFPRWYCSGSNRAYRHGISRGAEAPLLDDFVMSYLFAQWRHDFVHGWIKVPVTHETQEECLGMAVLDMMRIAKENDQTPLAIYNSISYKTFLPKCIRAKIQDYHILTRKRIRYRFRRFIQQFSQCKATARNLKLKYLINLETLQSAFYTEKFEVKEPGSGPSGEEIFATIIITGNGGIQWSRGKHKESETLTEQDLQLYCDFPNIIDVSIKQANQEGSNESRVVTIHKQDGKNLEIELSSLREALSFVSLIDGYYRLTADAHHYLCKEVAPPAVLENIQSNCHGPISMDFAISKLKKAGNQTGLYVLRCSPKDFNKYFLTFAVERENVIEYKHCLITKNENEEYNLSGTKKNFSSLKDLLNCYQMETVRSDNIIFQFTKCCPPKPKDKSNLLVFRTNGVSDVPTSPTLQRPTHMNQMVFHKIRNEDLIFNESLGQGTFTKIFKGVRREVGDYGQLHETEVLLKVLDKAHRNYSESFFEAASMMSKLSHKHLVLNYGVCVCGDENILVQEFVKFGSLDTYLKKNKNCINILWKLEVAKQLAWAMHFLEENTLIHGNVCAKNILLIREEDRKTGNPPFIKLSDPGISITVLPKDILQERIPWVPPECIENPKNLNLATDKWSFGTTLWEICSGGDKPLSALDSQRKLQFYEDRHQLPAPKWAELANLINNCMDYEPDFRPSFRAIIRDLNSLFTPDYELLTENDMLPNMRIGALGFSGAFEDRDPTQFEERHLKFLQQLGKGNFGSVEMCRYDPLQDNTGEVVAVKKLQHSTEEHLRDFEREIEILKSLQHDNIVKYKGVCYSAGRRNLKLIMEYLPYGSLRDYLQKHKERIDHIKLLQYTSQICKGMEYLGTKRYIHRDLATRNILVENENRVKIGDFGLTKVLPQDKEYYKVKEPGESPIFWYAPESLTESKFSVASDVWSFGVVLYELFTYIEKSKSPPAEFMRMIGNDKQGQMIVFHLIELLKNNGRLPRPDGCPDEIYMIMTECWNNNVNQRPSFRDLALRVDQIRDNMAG
# Tyrosine-protein kinase JAK1, sequence (P23458 whole entry): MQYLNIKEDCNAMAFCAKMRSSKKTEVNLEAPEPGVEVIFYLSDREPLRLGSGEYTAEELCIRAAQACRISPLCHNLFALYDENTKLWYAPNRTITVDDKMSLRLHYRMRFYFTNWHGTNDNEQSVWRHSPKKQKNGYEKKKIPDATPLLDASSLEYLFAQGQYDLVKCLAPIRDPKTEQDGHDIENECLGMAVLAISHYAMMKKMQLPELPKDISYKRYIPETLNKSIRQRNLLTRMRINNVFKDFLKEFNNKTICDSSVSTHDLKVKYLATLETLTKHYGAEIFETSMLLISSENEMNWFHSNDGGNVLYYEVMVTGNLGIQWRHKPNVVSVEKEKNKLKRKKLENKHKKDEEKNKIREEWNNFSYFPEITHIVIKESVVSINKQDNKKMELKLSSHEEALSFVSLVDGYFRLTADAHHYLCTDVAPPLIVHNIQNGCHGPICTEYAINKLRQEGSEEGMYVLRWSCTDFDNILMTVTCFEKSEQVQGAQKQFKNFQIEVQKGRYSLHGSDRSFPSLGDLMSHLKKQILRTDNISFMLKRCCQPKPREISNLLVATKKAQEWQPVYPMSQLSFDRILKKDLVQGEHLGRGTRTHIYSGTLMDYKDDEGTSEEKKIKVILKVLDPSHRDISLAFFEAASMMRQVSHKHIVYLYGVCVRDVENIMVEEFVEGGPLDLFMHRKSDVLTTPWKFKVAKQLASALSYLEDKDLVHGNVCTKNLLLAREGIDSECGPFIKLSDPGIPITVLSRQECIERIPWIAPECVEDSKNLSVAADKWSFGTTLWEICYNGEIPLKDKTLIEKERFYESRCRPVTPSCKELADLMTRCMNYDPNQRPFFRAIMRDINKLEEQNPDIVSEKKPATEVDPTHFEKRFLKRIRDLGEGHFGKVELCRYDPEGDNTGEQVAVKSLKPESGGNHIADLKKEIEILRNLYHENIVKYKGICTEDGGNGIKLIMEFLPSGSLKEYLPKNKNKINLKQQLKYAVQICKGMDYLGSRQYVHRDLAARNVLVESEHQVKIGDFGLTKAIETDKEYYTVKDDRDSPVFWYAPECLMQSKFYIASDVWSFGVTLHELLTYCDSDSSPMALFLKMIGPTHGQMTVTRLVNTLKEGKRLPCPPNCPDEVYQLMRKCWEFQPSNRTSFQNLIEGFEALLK
# Non-receptor tyrosine-protein kinase TYK2, sequence (P29597 whole entry): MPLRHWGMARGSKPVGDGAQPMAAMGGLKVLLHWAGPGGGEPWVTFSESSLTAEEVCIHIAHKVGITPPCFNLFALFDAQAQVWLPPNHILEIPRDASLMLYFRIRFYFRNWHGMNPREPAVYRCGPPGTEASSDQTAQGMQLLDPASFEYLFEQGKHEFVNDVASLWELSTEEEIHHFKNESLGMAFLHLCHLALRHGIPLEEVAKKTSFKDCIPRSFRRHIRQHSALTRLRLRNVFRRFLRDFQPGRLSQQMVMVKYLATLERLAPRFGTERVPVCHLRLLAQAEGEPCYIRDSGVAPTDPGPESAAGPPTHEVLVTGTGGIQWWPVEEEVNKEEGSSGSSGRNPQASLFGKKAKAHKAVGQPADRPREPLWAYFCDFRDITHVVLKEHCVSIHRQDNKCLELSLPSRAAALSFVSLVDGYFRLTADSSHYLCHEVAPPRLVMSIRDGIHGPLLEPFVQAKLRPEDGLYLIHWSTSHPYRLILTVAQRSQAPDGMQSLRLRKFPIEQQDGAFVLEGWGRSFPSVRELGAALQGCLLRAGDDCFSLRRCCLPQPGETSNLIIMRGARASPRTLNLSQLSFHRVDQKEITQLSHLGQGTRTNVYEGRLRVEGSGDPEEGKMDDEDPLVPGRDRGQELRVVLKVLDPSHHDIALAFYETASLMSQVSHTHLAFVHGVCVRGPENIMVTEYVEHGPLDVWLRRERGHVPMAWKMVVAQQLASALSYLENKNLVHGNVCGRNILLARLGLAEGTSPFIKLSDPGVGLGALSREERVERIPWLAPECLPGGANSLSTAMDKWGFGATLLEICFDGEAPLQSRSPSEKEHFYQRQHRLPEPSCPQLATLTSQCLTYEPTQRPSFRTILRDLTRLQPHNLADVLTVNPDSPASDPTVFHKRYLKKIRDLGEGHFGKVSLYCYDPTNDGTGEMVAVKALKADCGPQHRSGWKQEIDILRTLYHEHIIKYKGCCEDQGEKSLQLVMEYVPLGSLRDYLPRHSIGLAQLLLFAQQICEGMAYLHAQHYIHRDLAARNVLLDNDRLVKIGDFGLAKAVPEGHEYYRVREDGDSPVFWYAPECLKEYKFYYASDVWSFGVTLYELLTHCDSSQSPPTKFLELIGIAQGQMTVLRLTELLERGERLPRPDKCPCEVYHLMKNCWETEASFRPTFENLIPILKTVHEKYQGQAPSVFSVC
SMILES,IC50 [1] [nM],IC50 [2] [nM],IC50 [3] [nM],IC50 [4] [nM]
N#CC[C@@H](NCC1CCC(N2C=CC(=O)C3C=Nc4[nH]ccc4C32)CC1)C(F)(F)F (stereo partly drawn),10,18,1.7,5.1
Cc1cnn(CC2CCC(N3C=CC(=O)C4C=Nc5[nH]ccc5C43)CC2)c1 (stereo not drawn),7.1,39,0.41,1.9
N#CC[C@H](OCC1CCC(N2C=CC(=O)C3C=Nc4[nH]ccc4C32)CC1)C(F)(F)F (stereo partly drawn),5.1,11,0.74,2

# Molecules with a lower IC50 [1], results first:
IC50 [1] [nM],IC50 [2] [nM],IC50 [3] [nM],IC50 [4] [nM],SMILES
2.7,10,0.59,,O=C1C=CN(C2CCC(COCC(F)(F)F)CC2)C2c3cc[nH]c3N=CC12 (stereo not drawn)
2.5,19,0.68,1.6,O=C1C=CN(C2CCC(COCCC(F)(F)F)CC2)C2c3cc[nH]c3N=CC12 (stereo not drawn)
2.9,26,0.35,1.5,O=C1NC(=O)[C@@H](C2CCC(COCCC(F)(F)F)CC2)C2c3cc[nH]c3N=CC12 (stereo partly drawn)
